Article PMC10402201, “CYP5122A1 encodes an essential sterol C4-methyl oxidase in Leishmania donovani and determines the antileishmanial activity of antifungal azoles” (Research Square, 2023)

How the values were obtained:
CYP51 = target: T1, CYP51 (Leishmania donovani, UniProt A0A3S7WRS7); test: UV-Vis difference spectra (type II binding), plus BFC inhibition assay
T1 construct: gene LdCL_110017000; truncated form of XP_003859085.1 without the first 31 amino acids (transmembrane domain), N-terminal solubility tag, C-terminal His-tag
T1 sequence (A0A3S7WRS7 32-480): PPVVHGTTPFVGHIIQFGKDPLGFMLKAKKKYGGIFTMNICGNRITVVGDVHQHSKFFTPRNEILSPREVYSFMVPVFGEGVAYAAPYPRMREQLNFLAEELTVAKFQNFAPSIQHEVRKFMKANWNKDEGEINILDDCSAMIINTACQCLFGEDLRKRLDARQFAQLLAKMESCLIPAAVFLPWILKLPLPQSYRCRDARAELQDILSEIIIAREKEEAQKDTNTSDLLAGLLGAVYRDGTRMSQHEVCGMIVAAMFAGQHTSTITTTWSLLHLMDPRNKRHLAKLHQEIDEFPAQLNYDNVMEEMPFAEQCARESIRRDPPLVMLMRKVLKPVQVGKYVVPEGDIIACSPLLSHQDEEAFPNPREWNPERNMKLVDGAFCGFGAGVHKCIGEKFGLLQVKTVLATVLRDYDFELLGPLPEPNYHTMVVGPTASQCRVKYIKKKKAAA

CYP5122A1 = target: T2, CYP5122A1 (Leishmania donovani, UniProt A0A3S7X0B6); test: as above
T2 construct: gene LdCL_270005800; truncated form of XP_003861867.1 without the first 60 amino acids (transmembrane domain), N-terminal solubility tag, C-terminal His-tag
T2 sequence (A0A3S7X0B6 61-592): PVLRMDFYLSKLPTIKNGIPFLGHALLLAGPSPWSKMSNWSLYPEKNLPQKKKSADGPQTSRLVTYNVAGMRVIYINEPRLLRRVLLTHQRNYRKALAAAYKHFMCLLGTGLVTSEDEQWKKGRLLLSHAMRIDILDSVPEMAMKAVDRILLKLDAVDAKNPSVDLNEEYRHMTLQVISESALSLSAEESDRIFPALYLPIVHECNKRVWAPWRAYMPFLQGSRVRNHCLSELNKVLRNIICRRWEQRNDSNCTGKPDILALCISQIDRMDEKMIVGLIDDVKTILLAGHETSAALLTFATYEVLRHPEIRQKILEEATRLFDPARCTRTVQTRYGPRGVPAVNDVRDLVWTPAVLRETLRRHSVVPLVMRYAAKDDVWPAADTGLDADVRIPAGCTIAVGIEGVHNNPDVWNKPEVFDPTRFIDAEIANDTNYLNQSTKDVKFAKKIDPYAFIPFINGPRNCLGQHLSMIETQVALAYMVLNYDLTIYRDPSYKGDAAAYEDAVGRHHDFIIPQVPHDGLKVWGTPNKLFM

Row | SMILES | UV-Vis difference spectra (type II binding), plus BFC inhibition assay (CYP51) | UV-Vis difference spectra (type II binding), plus BFC inhibition assay (CYP5122A1)
1 | Clc1ccccc1C(c1ccccc1)(c1ccccc1)n1ccnc1 [clotrimazole] | Clotrimazole exhibited type II binding to both CYP51 and CYP5122A1 | Clotrimazole exhibited type II binding to both CYP51 and CYP5122A1
2 | OC(Cn1cncn1)(Cn1cncn1)c1ccc(F)cc1F [fluconazole] | Fluconazole and voriconazole elicited type II binding with CYP51 but no specific responses with CYP5122A1 | –
3 | C[C@@H](c1ncncc1F)[C@](O)(Cn1cncn1)c1ccc(F)cc1F [voriconazole] | Fluconazole and voriconazole elicited type II binding with CYP51 but no specific responses with CYP5122A1 | –
